Where two headings read alike, the source gives them in different places.
Tests used:
E. cloacae ATCC23355 = experiment: E-test MIC with or without NAB7061 (4 μg/ml), Mueller-Hinton agar; assay type: cell-based, Enterobacter cloacae
Experimental: (§1) MICs were determined by using E-strips (Biodisk Ltd., Solna, Sweden) according to the manufacturer's instructions.
(§2) The strains originated from ATCC (11 strains), CCUG (11 strains), and NCTC (The National Collection of Type Cultures, Colindale, U.K.; 2 strains). Eight strains (the F-strains) were purchased from Mobidiag Ltd., Helsinki, Finland.

E. coli ATCC25922 = conditions: E. coli ATCC25922
Experimental: as §1, §2

K. pneumoniae ATCC13883 = conditions: K. pneumoniae ATCC13883
Experimental: as §1, §2

E. coli IH3080 [1] = experiment: E-test MIC with or without NAB7061 (4 μg/ml), Mueller-Hinton agar; assay type: cell-based, Escherichia coli
Experimental: as §1, §2

Ac. baumannii F263 = experiment: as above; assay type: cell-based, Acinetobacter baumannii; conditions: for MIC of carbapenem at NAB 7061 concn 0 μg/ml: A. baumannii F263, absence of NAB 7061; for MIC of antibiotic in the presence of 4 μg/ml of NAB 7061: Ac. baumannii F263
Experimental: as §1, §2

Ac. baumannii ATCC19606 = experiment: as above; assay type: cell-based, Acinetobacter baumannii; conditions: for MIC of carbapenem at NAB 7061 concn 0 μg/ml: A. baumannii ATCC19606, absence of NAB 7061; for MIC of antibiotic in the presence of 4 μg/ml of NAB 7061: Ac. baumannii ATCC19606
Experimental: as §1, §2

Ac. baumannii F264 = experiment: as above; assay type: cell-based, Acinetobacter baumannii; conditions: for MIC of carbapenem at NAB 7061 concn 0 μg/ml: A. baumannii F264, absence of NAB 7061; for MIC of antibiotic in the presence of 4 μg/ml of NAB 7061: Ac. baumannii F264
Experimental: as §1, §2

A. baumannii F264 = experiment: E-test MIC of antibiotics on Mueller Hinton agar containing increasing concentrations of NAB739; assay type: cell-based, Acinetobacter baumannii
P. aeruginosa ATCC 27853 = experiment: as above; assay type: cell-based, Pseudomonas aeruginosa
A. baumannii ATCC19606 = experiment: as above; assay type: cell-based, Acinetobacter baumannii
[2] = rat, Li et al. (2003), identical dosing and administration procedure, cited from earlier work
E. coli IH3080 [3] = experiment: Sensitization to rifampin: growth inhibition around wells on LB plates containing rifampin; assay type: cell-based, Escherichia coli; conditions: 4 μg of compound
Experimental: (§3) From an overnight-grown culture of IH3080 on LB agar, a suspension of approx. 10^8 cells/ml was prepared in 0.9% NaCl. Aliquots of this suspension were then pipetted on the agar plates and the plates were gently shaken to spread the suspension evenly on the entire surface of the plate. Thereafter, the unabsorbed part of the suspension was removed by using a Pasteur pipette. After the surface had dried, small wells (diameter, 2 mm) were drilled on the plates (five wells per plate) by using a sterile sharp-edged narrow metal tube, single-use pipette tip, and vacuum suction. An alternative method used a swab to spread the inoculum. Samples (4 μl and 10 μl) of the peptide solution in 0.9% NaCl (at concentrations of 1 μg/ml and 0.1 μg/ml) were then pipetted to the wells and the sample fluids were allowed to absorb. Controls included 0.9% NaCl solution without the compound to be tested. The plates were then incubated for 18 h at 37° C. whereafter the diameters of growth inhibition zones around each well were measured; the diameter of the well itself was not reduced. Finally, the diameters were converted to surface areas of growth inhibition (in square mm).

[4] = tested on: Acinetobacter baumannii ATCC 19606; experiment: Growth inhibition around wells on LB agar plates; assay type: cell-based; conditions: A. baumannii ATCC 19606
Experimental: as §3, with “Samples (4 μl and 10 μl) of the peptide solution in 0.9% NaCl (at concentrations of 1 μg/ml and 0.1 μg/ml) were then pipetted to the wells and the sample fluids were allowed to absorb.” left out
(§4) Direct antibacterial activity of sixteen NAB compounds against Acinetobacter baumannii ATCC 19606 and Pseudomonas aeruginosa ATCC 27853 was tested by using the susceptibility determination method described in Example 2. Five compounds (NAB7062, NAB734, NAB737, NAB739, and NAB740) had very notable activity against A. baumannii. […] The antibacterial activity of NAB739 and NAB740 were as strong as or even stronger than that of polymyxin B.

E. coli IH3080 [5] = experiment: Growth inhibition around wells on LB agar plates; assay type: cell-based, Escherichia coli
Experimental: Peptides synthesized in Example 1, all carrying at least two (2) but not more than three (3) positive charges, were studied for their ability to inhibit the growth of E. coli. This was tested employing LB agar (LB Agar Lennox, Difco, BD, Sparks, Md., U.S.A) plates. The indicator organism E. coli IH3080 (K1:O018) was an encapsulated strain originally isolated from a neonate suffering from meningitis (Vaara et al. 1984) and obtained from National Public Health Institute, Helsinki, Finland.
as §3, with “Samples (4 μl and 10 μl) of the peptide solution in 0.9% NaCl (at concentrations of 1 μg/ml and 0.1 μg/ml) were then pipetted to the wells and the sample fluids were allowed to absorb.” left out

[6] = tested on: Pseudomonas aeruginosa ATCC 27853; experiment: Growth inhibition around wells on LB agar plates; assay type: cell-based; conditions: Ps. aeruginosa ATCC 27853
Experimental: as §3, §4

[7] = tested on: Ps. aeruginosa ATCC 27853; experiment: Sensitization to rifampin: growth inhibition around wells on LB plates containing rifampin; assay type: cell-based, Pseudomonas aeruginosa; conditions: 4 μg
A. baumannii ATCC 19606 = experiment: as above; assay type: cell-based, Acinetobacter baumannii; conditions: 4 μg

Molecule	Sensitization factor to antibiotic (MIC without / with 4 μg/ml of NAB 7061) (E. cloacae ATCC23355)	Sensitization factor to antibiotic (MIC without / with 4 μg/ml of NAB 7061) (E. coli ATCC25922)	Sensitization factor to antibiotic (MIC without / with 4 μg/ml of NAB 7061) (K. pneumoniae ATCC13883)	Sensitization factor to antibiotic (MIC without / with 4 μg/ml of NAB 7061) (E. coli IH3080 [1])	growth inhibition around a well in the presence of rifampin (E. coli IH3080 [3]; rifampin 0 μg/ml)	growth inhibition around a well in the presence of rifampin (E. coli IH3080 [3]; rifampin 0.1 μg/ml)	growth inhibition around a well in the presence of rifampin (E. coli IH3080 [3]; rifampin 1.0 μg/ml)	growth inhibition around a well ([4]; 4 μg)	growth inhibition around a well ([4]; 10 μg)	growth inhibition around a well (E. coli IH3080 [5]; 4 μg of compound per well)	growth inhibition around a well (E. coli IH3080 [5]; 10 μg of compound per well)	growth inhibition around a well ([6]; 4 μg)	growth inhibition around a well ([6]; 10 μg)	growth inhibition around a well in the presence of rifampin ([7]; rifampin 0 μg/ml)	growth inhibition around a well in the presence of rifampin ([7]; rifampin 0.1 μg/ml)	growth inhibition around a well in the presence of rifampin ([7]; rifampin 0.3 μg/ml)	growth inhibition around a well in the presence of rifampin (A. baumannii ATCC 19606; rifampin 0 μg/ml)	growth inhibition around a well in the presence of rifampin (A. baumannii ATCC 19606; rifampin 0.1 μg/ml)	growth inhibition around a well in the presence of rifampin (A. baumannii ATCC 19606; rifampin 0.3 μg/ml)	further results
CC(=O)NC[C@H]1CN(c2ccc(N3CCOCC3)c(F)c2)C(=O)O1 [Linezolid]	>8	>11	>4	>8																
COc1c(N2C[C@@H]3CCCN[C@@H]3C2)c(F)cc2c(=O)c(C(=O)O)cn(C3CC3)c12 [Moxifloxacin]	4																			
COc1cc(Cc2cnc(N)nc2N)cc(OC)c1OC [Trimetoprim]	3	4	2	3																
C[C@@H](O)[C@H]1C(=O)N2C(C(=O)O)=C(SCCN=CN)C[C@H]12 [imipenem]																				MIC of carbapenem at NAB 7061 concn 0 μg/ml (Ac. baumannii F263): >32 µg/mL; MIC of antibiotic in the presence of 4 μg/ml of NAB 7061 (Ac. baumannii F263): 8 µg/mL; MIC of carbapenem at NAB 7061 concn 0 μg/ml (Ac. baumannii ATCC19606): 0.38 µg/mL; MIC of antibiotic in the presence of 4 μg/ml of NAB 7061 (Ac. baumannii ATCC19606): 0.38 µg/mL; MIC of carbapenem at NAB 7061 concn 0 μg/ml (Ac. baumannii F264): 24 µg/mL; MIC of antibiotic in the presence of 4 μg/ml of NAB 7061 (Ac. baumannii F264): 6 µg/mL
C[C@@H](O)[C@H]1C(=O)N2C(C(=O)O)=C(S[C@@H]3CN[C@H](C(=O)N(C)C)C3)[C@H](C)[C@H]12 [meropenem]																				MIC of antibiotic in the presence of NAB739 (A. baumannii F264; NAB 739 0 μg/ml): >32 µg/mL; MIC of antibiotic in the presence of NAB739 (A. baumannii F264; NAB 739 0.5 μg/ml): 1 µg/mL; MIC of antibiotic in the presence of NAB739 (A. baumannii F264; NAB 739 1 μg/ml): 0.38 µg/mL; MIC of antibiotic in the presence of NAB739 (P. aeruginosa ATCC 27853; NAB 739 0 μg/ml): 0.25 µg/mL; MIC of antibiotic in the presence of NAB739 (P. aeruginosa ATCC 27853; NAB 739 0.5 μg/ml): 0.25 µg/mL; MIC of antibiotic in the presence of NAB739 (P. aeruginosa ATCC 27853; NAB 739 1 μg/ml): 0.25 µg/mL; MIC of antibiotic in the presence of NAB739 (P. aeruginosa ATCC 27853; NAB 739 2 μg/ml): 0.25 µg/mL; MIC of antibiotic in the presence of NAB739 (P. aeruginosa ATCC 27853; NAB 739 […]): 0.25 µg/mL; MIC of carbapenem at NAB 7061 concn 0 μg/ml (Ac. baumannii F263): >32 µg/mL; MIC of antibiotic in the presence of 4 μg/ml of NAB 7061 (Ac. baumannii F263): 6 µg/mL; MIC of carbapenem at NAB 7061 concn 0 μg/ml (Ac. baumannii ATCC19606): 1.5 µg/mL; MIC of antibiotic in the presence of 4 μg/ml of NAB 7061 (Ac. baumannii ATCC19606): 0.75 µg/mL; MIC of carbapenem at NAB 7061 concn 0 μg/ml (Ac. baumannii F264): 32 µg/mL; MIC of antibiotic in the presence of 4 μg/ml of NAB 7061 (Ac. baumannii F264): 4 µg/mL; MIC of antibiotic in the presence of NAB739 (A. baumannii ATCC19606; NAB 739 0 μg/ml): 1 µg/mL; MIC of antibiotic in the presence of NAB739 (A. baumannii ATCC19606; NAB 739 0.5 μg/ml): 0.25 µg/mL; MIC of antibiotic in the presence of NAB739 (A. baumannii ATCC19606; NAB 739 1 μg/ml): 0.125 µg/mL
Colistin (polymyxin E)																				clearance [2]: 5.2 ± 0.4 mL/min/kg; half-life [2]: 1.24 ± 0.22 h; renal clearance [2]: 0.010 ± 0.008 mL/min/kg; urinary recovery [2]: 0.18±0.14 % of dose in 24 h; volume of distribution [2]: 0.496 ± 0.06 L/kg; urinary recovery ([2]; listed as polymyxin E (colistin)): about 0.18±0.14 % of dose in 24 h
OA-Thr-Ser-cy[Dab-Dab-DPhe-Leu-Dab-Dab-Thr-] [NAB 743]					38 square millimeters	133 square millimeters	227 square millimeters	0 square millimeters	0 square millimeters	38 square millimeters	79 square millimeters	28 square millimeters	38 square millimeters	28 square millimeters	28 square millimeters	28 square millimeters	0 square millimeters	38 square millimeters	227 square millimeters	
OA-Thr-Thr-DSer-cy[Dab-Dab-DPhe-Leu-Dab-Dab-Thr-] [NAB 748]					113 square millimeters	154 square millimeters	154 square millimeters	20 square millimeters	50 square millimeters	113 square millimeters	156 square millimeters	20 square millimeters	50 square millimeters	20 square millimeters	13 square millimeters	20 square millimeters	20 square millimeters	133 square millimeters	201 square millimeters	
Polymyxin B nonapeptide [reference compound]					0 square millimeters	20 square millimeters	113 square millimeters	0 square millimeters	0 square millimeters	0 square millimeters	0 square millimeters	113 square millimeters	177 square millimeters	113 square millimeters	113 square millimeters	154 square millimeters	0 square millimeters	133 square millimeters	154 square millimeters	
quinupristin-dalfopristin [Quinupristin-dalfopr.]	>5	>21	1	>21																
